Data reported in the supplement of paper PMC10307832.

Experiments:
[1] = compound: CC1=NN=C(O1)C2=NN=C(C=C2)N3CCC(CC3)OC4=C(C=CC(=C4)F)Cl; assay: relative viability (nuclei count vs DMSO), 5 days (fraction); higher = more cells survive
Method in brief: (§1)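 MetaXpress counted nuclei in 4× images of lung cancer cell lines that had been fixed, permeabilised and Hoechst-stained in one step. Before that, cells in 1536-well plates were kept overnight at 37 °C, pinned with five √10-spaced library-drug doses on vehicle-anchored plates, and cultured 5 days without medium change. Viability takes treated-well nuclei over vehicle-well nuclei and uses the median across plates. Plates were accepted only at control CV below 25% and at least one doubling.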

Tosedostat = compound: CC(C)C[C@@H](C(=O)N[C@H](C(=O)OC1CCCC1)c1ccccc1)[C@H](O)C(=O)NO [Tosedostat]; assay: as above
Method in brief: as §1

| Cell Line | relative viability ([1]; 0.253 µM) | relative viability ([1]; 0.8 µM) | relative viability ([1]; 2.53 µM) | relative viability ([1]; 8 µM) | relative viability (Tosedostat; 0.02 µM) | relative viability (Tosedostat; 0.06325 µM) | relative viability (Tosedostat; 0.2 µM) | relative viability (Tosedostat; 0.6325 µM) | relative viability (Tosedostat; 2 µM) |
| --- | --- | --- | --- | --- | --- | --- | --- | --- | --- |
| NCI-H647 | 0.65 | 0.642 | 0.66 | 0.413 | 1.02 | 1.01 | 1.02 | 0.977 | 0.883 |
| NCI-H650 | 0.927 | 0.72 | 0.865 | 0.71 | 1.07 | 0.988 | 0.731 | 0.787 | 0.789 |
| NCI-H661 | 0.859 | 0.816 | 0.731 | 0.71 | 1.01 | 0.991 | 0.948 | 0.926 | 0.934 |
| NCI-H727 | 0.817 | 0.728 | 0.981 | 0.785 | 0.914 | 0.899 | 0.696 | 0.819 | 0.95 |
| NCI-H838 | 0.885 | 0.752 | 0.886 | 0.78 | 0.965 | 0.957 | 0.951 | 1.01 | 1.11 |
| NCI-H1299 | 0.961 | 0.9 | 0.892 | 0.852 | 1.09 | 0.995 | 0.985 | 0.968 | 0.939 |
| NCI-H1355 | 0.685 | 0.592 | 0.915 | 0.82 | 0.961 | 0.936 | 1.04 | 0.838 | 0.905 |
| NCI-H1395 | 0.823 | 0.762 | 0.813 | 0.882 | 0.894 | 0.938 | 0.972 | 0.889 | 0.78 |
| NCI-H1437 | 0.741 | 0.642 | 0.707 | 0.632 | 1 | 0.987 | 1.05 | 0.97 | 0.889 |
| NCI-H1563 | 0.986 | 0.954 | 0.995 | 0.993 | 1.03 | 1.07 | 1.05 | 1.13 | 1.08 |
| NCI-H1623 | 0.897 | 0.734 | 0.918 | 0.926 | 1.06 | 0.895 | 0.907 | 0.798 | 0.965 |
| NCI-H1648 | 0.435 | 0.462 | 0.56 | 0.496 | 1.01 | 0.923 | 0.881 | 0.935 | 0.578 |
| NCI-H1650 | – | 0.756 | 0.749 | 0.722 | 0.895 | 0.85 | 0.94 | 0.911 | 0.98 |
| NCI-H1651 | 0.819 | 0.795 | 0.784 | 0.682 | 1.06 | 0.984 | 0.973 | 0.921 | 0.899 |
| NCI-H1666 | 0.707 | 0.844 | 0.835 | 0.782 | 1 | 0.933 | 1.02 | 1.08 | 0.999 |
| NCI-H1703 | 0.786 | 0.873 | 0.933 | 0.829 | 0.995 | 0.789 | 0.763 | 0.572 | 0.726 |
| NCI-H1734 | 0.954 | 0.729 | 0.966 | 0.859 | 1.1 | 0.903 | 0.959 | 0.866 | 0.822 |
| NCI-H1755 | 0.661 | 0.746 | 0.759 | 0.731 | 1 | 0.999 | 1.05 | 1 | 0.971 |
| NCI-H1792 | 0.748 | 0.741 | 0.833 | 0.846 | 1.01 | 1.11 | 0.963 | 0.828 | 1.07 |

| Cell Line | relative viability ([1]; 0.253 µM) | relative viability ([1]; 0.8 µM) | relative viability ([1]; 2.53 µM) | relative viability ([1]; 8 µM) | relative viability (Tosedostat; 0.02 µM) | relative viability (Tosedostat; 0.06325 µM) | relative viability (Tosedostat; 0.2 µM) | relative viability (Tosedostat; 0.6325 µM) | relative viability (Tosedostat; 2 µM) |
| --- | --- | --- | --- | --- | --- | --- | --- | --- | --- |
| NCI-H1793 | 0.877 | 0.776 | 1.02 | 0.755 | 0.815 | 0.88 | 0.92 | 0.913 | 0.79 |
| NCI-H1915 | 0.607 | 0.341 | 0.497 | 0.407 | 1.15 | 0.949 | 0.998 | 0.988 | 0.891 |
| NCI-H1944 | 0.429 | 0.487 | 0.515 | 0.466 | 1.01 | 0.921 | 0.928 | 0.889 | 0.853 |
| NCI-H1975 | – | 0.676 | 0.918 | 0.849 | 0.973 | 1 | 0.884 | 0.788 | 0.733 |
| NCI-H1993 | 0.772 | 0.864 | 0.954 | 0.833 | 1 | 0.958 | 0.847 | 0.631 | 0.703 |
| NCI-H2009 | 0.613 | 0.552 | 0.61 | 0.539 | 1.16 | 0.94 | 0.988 | 0.926 | 0.866 |
| NCI-H2023 | 0.513 | 0.451 | 0.579 | 0.431 | 1.05 | 0.916 | 0.937 | 0.713 | 0.942 |
| NCI-H2085 | 0.901 | 0.736 | 0.908 | 0.795 | 0.918 | 1.02 | 0.983 | 1.02 | 0.99 |
| NCI-H2087 | 0.771 | 0.569 | 0.659 | 0.621 | 1.21 | 1.06 | 1.11 | 0.819 | 0.942 |
| NCI-H2126 | 0.832 | 0.869 | 0.928 | 0.864 | 0.976 | 1.01 | 1.01 | 0.903 | 0.865 |
| NCI-H2170 | 0.481 | 0.52 | 0.607 | 0.444 | 0.997 | 0.963 | 1.02 | 0.984 | 0.89 |
| NCI-H2228 | 0.904 | 0.921 | 0.979 | 0.834 | 1.22 | 1.1 | 0.881 | 0.837 | 0.686 |
| NCI-H2342 | 0.678 | 0.675 | 0.604 | 0.525 | 0.954 | 0.998 | 0.986 | 0.944 | 0.94 |
| NCI-H2347 | 0.883 | 0.771 | 0.893 | 0.783 | 1.01 | 1.05 | 1.05 | 0.927 | 0.833 |
| NCI-H2405 | 0.577 | 0.495 | 0.553 | 0.525 | 1.16 | 1 | 0.991 | 0.95 | 0.92 |
| NCI-H3122 | 0.47 | 0.444 | 0.478 | 0.432 | 1.06 | 1.01 | 1.03 | 1.02 | 1.02 |
| PC-3 [JPC-3] | 0.85 | 0.805 | 0.896 | 0.926 | 1.08 | 1.13 | 1.04 | 0.933 | 0.641 |
| PC-14 | 0.896 | 0.778 | 0.817 | 0.846 | 1.14 | 0.951 | 0.962 | 0.928 | 0.806 |
